With `CCN1CC(=O)N(c2cc(Oc3ncccc3C(F)(F)F)c(Cl)cc2F)C1=O` the melting point was 162 to 163 °C.
`O=C(O)C1Cc2c(c(Cl)cc3c(-c4ccccc4F)noc23)O1` (configuration not stated) gave a melting point of 199 to 200 °C.
`CC(C)(C#N)c1cc(Cc2cncnc2)cc(C(C)(C)C#N)c1` gave a melting point of 132 to 134 °C.
Compound `O=c1[nH]ncc2[nH]c(-c3ccc(OC(F)F)c(OC4CC4)c3)c(Cl)c12` has a melting point of 281 to 283 °C.
For `CCOC(=O)c1ccc(S(C)(=O)=O)c(-c2cc(C)no2)c1C`, the melting point was 83 to 86 °C.
`COC(=O)C1=C(C)Nc2ccnn2C1c1ccccc1C(F)(F)F` (configuration not stated) showed a melting point of 209 to 210 °C.
In the case of `Cn1cc(S(=O)(=O)Cl)c(=O)c2ccc(Cl)cc21`, the melting point is reported as > 300 °C.
For `COC1(c2cccc(OCc3ccc4ccccc4c3)c2)CCN(CC#N)C1` (configuration not stated), the melting point was 76 to 77 °C.
Work on `CNS(=O)(=O)Cc1ccc2[nH]cc(CCN=CNc3cccnc3)c2c1` yielded a melting point of 70 to 71 °C.
In the case of `COCCNC(=O)c1cccc(-c2cccc3cc(Cc4cccc(C(F)(F)F)c4)sc23)c1F`, the melting point is reported as 94 to 95 °C.
With `CN(C)Cc1ccc2nc(NC(=O)c3ccc(C(C)(C)C)cc3)cn2c1` the melting point was 236 to 237 °C.
`COc1c(C)cnc(CS(=O)c2nc3ccccc3n2CCl)c1C` (configuration not stated) showed a melting point of 140 to 141 °C.
`Cn1c2ccccc2c2cc(NC(=O)c3ccccc3Cl)ccc21` showed a melting point of 206 °C.
Work on `CC(=O)NCC1CN(c2ccc(N3CCN(c4nc5cc(F)ccc5o4)CC3)c(F)c2)C(=O)O1` (configuration not stated) yielded a melting point of 226 to 228 °C.
Compound `Oc1ccc(-c2cc3cc(O)cc(Cn4ccnc4)c3o2)cc1` has a melting point of 269 to 271 °C.
Compound `Cc1ccnc2c1C(=O)CC(c1ccccc1Cl)C2` (configuration not stated) has a melting point of 97 to 98 °C.
`COc1ccc(C=CC(=O)c2ccc(OCC(O)CN3CCN(c4ccccc4)CC3)cc2)cc1OC` (configuration not stated) gave a melting point of 126 to 127 °C.
With `CNc1c([N+](=O)[O-])ccc2c1OC(COS(=O)(=O)c1ccc(C)cc1)CO2` (configuration not stated) the melting point was 149 to 151 °C.
For `CCOC(=O)CCCOc1ccc(N2CCN(c3ccncc3)CC2)cc1`, the melting point was 84 to 85 °C.
With `CN(c1ccc(C2CCCCC2)cc1)c1nc(=O)c2cccnc2s1` the melting point was 192 to 195 °C.
Work on `OC(c1ccc(Cl)cc1)(c1ccc(Cl)cc1)c1cn[nH]c1` yielded a melting point of 135 to 137 °C.
`O=C(O)Cc1cc(C(=O)c2ccc([N+](=O)[O-])cc2)ccc1O` showed a melting point of 213 °C.
Compound `O=S(=O)(NCCO)c1c[nH]c(-c2ccc(Cl)cc2)n1` has a melting point of 210 to 212 °C.
`O=C(O)c1ccc2c(c1)C(=O)N(c1ccc(C3(c4ccc(N5C(=O)c6ccc(C(=O)O)cc6C5=O)cc4)c4ccccc4-c4ccccc43)cc1)C2=O` gave a melting point of 328 to 331 °C.
In the case of `O=C(OC1CCCCCC1)c1ncn2c1[C@@H]1CCCN1C(=O)c1c(Cl)cccc1-2`, the melting point is reported as 179 to 180 °C.
`CC(=O)ON1C(C)(C)NC(=O)C1(C)C` gave a melting point of 188 to 190 °C.
With `Cc1cc(C#N)cc(Oc2[nH]c(=O)[nH]c(=O)c2C(C)C)c1` the melting point was 272 to 275 °C.
For `CNC(=O)c1ccc(CCN2CC=C(c3c[nH]c(-c4ccc(F)cc4)c3-c3ccncc3)CC2)cc1`, the melting point was 231 to 233 °C.
In the case of `CCCCOc1ccc(NC(=O)c2cnc(C(=O)OC)c(Cl)c2)cc1`, the melting point is reported as 121 to 123 °C.
With `O=c1[nH]cnc2cc3c(cc12)OCCO3` the melting point was 275 °C.
For `NC(=O)N(O)Cc1ccc(OCCc2noc(-c3ccccc3)n2)cc1`, the melting point was 135 to 136 °C.
For `CC(C)CCCC(C)C1CCC2C3CC=C4CC(OCCCCCCO)CCC4(C)C3CCC12C` (configuration not stated), the melting point was 75.9 to 81 °C.
`CCCCNS(=O)(=O)c1cc(C(=O)O)cc(Cl)c1Cl` showed a melting point of 160 to 165 °C.
Compound `CSc1ccc2ccc(C(=O)O)cc2c1` has a melting point of 217 °C.
`CC(C)n1nc(-c2cnc(N)nc2-c2ccc(Cl)cc2)ccc1=O` showed a melting point of 195 °C.
`O=[N+]([O-])c1cc(Cl)cc(Cc2cc(Cl)cc([N+](=O)[O-])c2O)c1O` showed a melting point of 163 to 170 °C.
For `COC(=O)C1CCC2ON=C(c3ccc(Cl)cc3)C2CC1` (configuration not stated), the melting point was 150 to 185 °C.
In the case of `CCOC(=O)c1c(O)cc(C(F)(F)F)nc1C(F)(F)F`, the melting point is reported as 70 to 77 °C.
`O=C(NCCO)c1c([N+](=O)[O-])cccc1S(=O)(=O)NCCO` gave a melting point of 176 to 178 °C.
In the case of `O=C(CCl)Nc1ccc2[nH]ncc2c1`, the melting point is reported as 175 to 178 °C.
`CCCCc1cccnc1NC=C(C#N)C(=O)OCC` gave a melting point of 98.5 to 99.5 °C.
`COc1cc2c(cc1-c1cc(-c3ccc(C#N)cc3)on1)C(C)(C)CCC2(C)C` showed a melting point of 202 to 203 °C.
Compound `Nc1ncnc2c1ncn2COCCO` has a melting point of 200 °C.
Work on `CC(C)=CCOc1ccc(C(=O)C=Cc2ccccc2)c(O)c1` yielded a melting point of 164 to 166 °C.
With `O=c1[nH]nc2ccc(S)nn12` the melting point was > 300 °C.
Work on `NC(=O)NC(=O)c1coc2ccccc2c1=O` yielded a melting point of 200 to 217 °C.
Work on `C=C1CC(COc2cccc3ccc(C)nc23)(c2ccccc2)OC1=O` (configuration not stated) yielded a melting point of 108 to 109 °C.
With `O=C(NC1CCOCC1)c1cnccc1C(F)(F)F` the melting point was 149 to 150 °C.
For `COc1ccc2[nH]c(SCc3ncc(Br)c(N4CCCCC4)c3C)nc2c1`, the melting point was 90 to 92 °C.
Compound `CC(C)Oc1ccc(C(CC(N)=O)N2C(=O)c3ccccc3C2=O)cc1OC(C)C` (configuration not stated) has a melting point of 153 to 154 °C.
With `Cc1ccc(C)c(NC(=O)C(C)c2ccc(N)c(N)c2)c1` (configuration not stated) the melting point was 120 to 121 °C.
`COCCc1nc2c(N)nc3c(c2n1CCCNS(C)(=O)=O)CCCC3` gave a melting point of 150 to 152 °C.
With `COc1cc2c(cc1OC)CN(CCCOc1ccc(NC(=O)c3cccc4c(=O)c5ccccc5sc34)cc1)CC2` the melting point was 210 °C.
Compound `O=C(Nc1cccc(C(F)(F)F)c1)c1ccccc1NCCc1ccncc1` has a melting point of 151 to 152 °C.
Work on `CN(C)C=C1C(=O)N(c2cccc(O)c2)c2ccccc21` yielded a melting point of 200 to 203 °C.
For `Oc1cc(Nc2nnc(Cc3ccncc3)c3ccccc23)ccc1Cl`, the melting point was 245 to 246 °C.
Work on `CC(C)(SSc1ccccc1C(=O)Nc1ccc(S(N)(=O)=O)cc1)C(N)C(=O)O` (configuration not stated) yielded a melting point of 115 to 118 °C.
In the case of `CCCCCCCCC(CCC(=O)O)C(C)=O` (configuration not stated), the melting point is reported as 36 to 38 °C.
Compound `COC(=O)c1ccc(Cn2c(=O)c(C)c3sc(C(=O)NCc4cccc(F)c4)cn3c2=O)cc1` has a melting point of 209 to 211 °C.
`CCOC(=O)c1cc2c(C)cccc2n1CCCC(=O)O` gave a melting point of 132 to 133 °C.
Compound `CCCCCCCCCCCCCCCCSCC(CO)NC(=O)OC` (configuration not stated) has a melting point of 55 to 56 °C.
Compound `CCCc1nnc(N2N=C(c3ccc([N+](=O)[O-])c(C)c3)c3cc4c(cc3C[C@H]2C)OCO4)s1` has a melting point of 143 to 145 °C.
`O=[N+]([O-])c1cccc2c1OCCO2` gave a melting point of 55 to 59 °C.
With `CCCC1(C)CC(=O)NC(=O)C1` the melting point was 110 to 112 °C.
For `CCCCn1c(=O)c2c(NC)n[nH]c2n(CCO)c1=O`, the melting point was 248 to 253 °C.
With `COc1ncccc1Cc1cc2cccc(-c3cccc(C(=O)NCCO)c3)c2s1` the melting point was 121 to 122 °C.
`COCOc1ccc(CSc2cnn(C(C)(C)C)c(=O)c2Cl)cc1` gave a melting point of 50 to 54 °C.
With `O=C(O)c1oc(=O)c2ccc(Cl)cc2c1-c1ccccc1` the melting point was 206 to 208 °C.
With `CCc1c2c(nc3cc(F)cc(F)c13)-c1cc3c(c(=O)n1C2)COC(=O)CC3(O)CC` (configuration not stated) the melting point was 255 °C.
Work on `Clc1cccc(Cn2ccc(CN3CCC(c4ccccc4)(c4ccccc4)CC3)n2)c1` yielded a melting point of 136 to 137 °C.
Work on `c1ccc(C(c2ccccc2)N2CCN(CCOc3ccccc3-c3nc4ccccc4s3)CC2)cc1` yielded a melting point of 67 to 72 °C.
With `COc1ccnc(CCc2nc3cc(-c4ccc(S(N)(=O)=O)cc4)cnc3[nH]2)c1` the melting point was 216 to 218 °C.

Source: a melting point compilation (Tetko et al.; mined from patent text by program, amines drawn as free bases though some values may be those of a salt)
